The text below walks through data of ChEMBL document CHEMBL1201862, “PubChem BioAssay data set” (2004).

By GI50 is commonly meant the concentration at which growth is held to half of that of the control.

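Briefly, cells in 96-well plates were exposed to five compound concentrations for 48 h, and endpoints were estimated by linear interpolation. The concentration for 50% growth inhibition is given as GI50.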 Calls of active or inactive are those of the source. No stated cut-off is given here; in the data, active = GI50 up to about 1.1 µM and inactive = higher.

Among the test systems are K562; SNB-75; SK-MEL-28; MDA-MB-231; SK-MEL-5; RPMI-8226; MCF7; ACHN; SF-539; COLO 205; SR; DU-145; SN12C; SNB-19; IGROV-1; UACC-257; NCI-H226; U-251; Malme-3M.
What all share (test): DTP human tumour cell line panel, 48 h

Regarding `CCCCCCCCCCCCCCCC[N+](C)(C)Cc1ccc(F)cc1`, the GI50 with K562 was 1.26 µM (inactive); in the assay on SNB-75, 1.39 µM (inactive); in the assay with SK-MEL-28, 3.08 µM (inactive); in the assay on MDA-MB-231 it was 1.32 µM (inactive); in the assay with SK-MEL-5, 1.75 µM (inactive); with RPMI-8226 it was 1.06 µM (active). In addition, the GI50 in the assay with MCF7 is 1.61 µM (inactive); in the assay on ACHN, 3.07 µM (inactive); in the assay on SF-539, 1.29 µM (inactive); in the assay on COLO 205, 1.61 µM (inactive); in the assay with SR it was 1.54 µM (inactive); in the assay on DU-145 it was 3.68 µM (inactive). The GI50 was 1.62 µM (inactive) in the assay with SN12C; 1.66 µM (inactive) in the assay on SNB-19; 0.383 µM (active) in the assay with IGROV-1; 1.79 µM (inactive) in the assay with UACC-257; 2.15 µM (inactive) with NCI-H226; 1.43 µM (inactive) in the assay on U-251.

As to `COC(=O)CSC1CC(=O)c2c(Cl)sc(Cl)c21` (stereo not given), the GI50 in the assay on Malme-3M, in the assay on K562, in the assay with SNB-75, in the assay with SK-MEL-28, in the assay on MDA-MB-231 and in the assay on SK-MEL-5 was > 100 µM (inactive) each time. Moreover, the GI50 in the assay on MCF7 is > 100 µM (inactive); with ACHN, > 100 µM (inactive); with COLO 205 it was > 100 µM (inactive); in the assay with SR it was 66.2 µM (inactive); in the assay on DU-145, > 100 µM (inactive); with SN12C it was > 100 µM (inactive). In addition, the GI50 with SNB-19, with IGROV-1, in the assay on UACC-257 and in the assay on U-251 was > 100 µM (inactive) in each case.

Turning to `C=CCSc1nn(CC=C)cc2ncnc1-2`, the GI50 in the assay on K562, with SNB-75, with SK-MEL-28, in the assay on MDA-MB-231, in the assay on SK-MEL-5 and with RPMI-8226 was > 100 µM (inactive) in each case. Also, the GI50 with MCF7, in the assay on ACHN, in the assay on SF-539, with COLO 205, in the assay with SR and with DU-145 was > 100 µM (inactive) in each case. In addition, the GI50 with SN12C, with SNB-19, in the assay on IGROV-1, with UACC-257, with NCI-H226 and in the assay with U-251 was > 100 µM (inactive) throughout.

With `O=S(=O)(NNc1ccccc1)c1ccccc1`, the GI50 in the assay with K562 is 4.23 µM (inactive); in the assay on SNB-75, 40 µM (inactive); with SK-MEL-28, 48.2 µM (inactive); in the assay with MDA-MB-231, 1.36 µM (inactive); in the assay with SK-MEL-5, 2.1 µM (inactive); with RPMI-8226, 3.71 µM (inactive). In addition, the GI50 in the assay with MCF7 was 14.9 µM (inactive); in the assay on ACHN, 0.662 µM (active); in the assay on SF-539 it was 32.7 µM (inactive); with COLO 205 it was 8.99 µM (inactive); in the assay with SR, 11.2 µM (inactive); in the assay with DU-145, 13.2 µM (inactive). The GI50 was 4.49 µM (inactive) in the assay on SN12C; 39.7 µM (inactive) in the assay with SNB-19; 10.2 µM (inactive) with IGROV-1; 27.5 µM (inactive) in the assay on UACC-257; 4.12 µM (inactive) with NCI-H226; 16.2 µM (inactive) with U-251.

As for `O=C(Nc1ccccc1)N(C1=NCC(CI)S1)c1ccc(F)c(F)c1` (stereo not given), the GI50 in the assay on Malme-3M was 55.7 µM (inactive); in the assay on K562, 27 µM (inactive); with SNB-75, 12.6 µM (inactive); in the assay with SK-MEL-28, 12.4 µM (inactive); in the assay with MDA-MB-231, 24.8 µM (inactive); with SK-MEL-5, 17.3 µM (inactive). Moreover, the GI50 in the assay on RPMI-8226 was 21.2 µM (inactive); with MCF7, 22.4 µM (inactive); in the assay with ACHN, 49.4 µM (inactive); in the assay with SF-539, 33.2 µM (inactive); with COLO 205, 56.1 µM (inactive); in the assay on SR, 23.8 µM (inactive). Besides, the GI50 in the assay on DU-145 was > 100 µM (inactive); in the assay with SN12C, 81.5 µM (inactive); in the assay with SNB-19, > 100 µM (inactive); in the assay with IGROV-1, 38.8 µM (inactive); in the assay on UACC-257 it was 31 µM (inactive); in the assay on U-251 it was 54.1 µM (inactive).

In the case of `C=C(Cl)COC(=O)Nc1cccc(Cl)c1`, the GI50 is 54.6 µM (inactive) in the assay on K562; 26.4 µM (inactive) in the assay on SNB-75; 42.1 µM (inactive) in the assay on SK-MEL-28; 40.4 µM (inactive) with MDA-MB-231; 18 µM (inactive) in the assay on SK-MEL-5; 39.4 µM (inactive) in the assay with RPMI-8226. In addition, the GI50 in the assay on MCF7 was 28.1 µM (inactive); with ACHN it was 34.9 µM (inactive); in the assay with SF-539, 54.8 µM (inactive); in the assay on COLO 205, 31.7 µM (inactive); in the assay on SR, 51.1 µM (inactive); with DU-145, 31.1 µM (inactive). Moreover, the GI50 with SN12C was 33.8 µM (inactive); in the assay with SNB-19 it was 35.6 µM (inactive); in the assay with IGROV-1 it was 26.7 µM (inactive); in the assay on UACC-257, 31 µM (inactive); in the assay with NCI-H226 it was 44.8 µM (inactive); in the assay on U-251, 34.4 µM (inactive).

As to `[N-]=[N+]=C(C(=O)N1CCCC1=O)S(=O)(=O)c1ccccc1`, the GI50 with Malme-3M was 28.3 µM (inactive); in the assay with K562 it was 69.5 µM (inactive); in the assay on SNB-75, 87.7 µM (inactive); in the assay with SK-MEL-28, 48.5 µM (inactive); with MDA-MB-231 it was > 100 µM (inactive); in the assay with SK-MEL-5 it was 98.9 µM (inactive). Moreover, the GI50 was 48.3 µM (inactive) in the assay on RPMI-8226; 32.7 µM (inactive) in the assay with MCF7; > 100 µM (inactive) in the assay on ACHN; 98.6 µM (inactive) in the assay with SF-539; > 100 µM (inactive) with COLO 205; 87.7 µM (inactive) in the assay with SR. The GI50 in the assay on DU-145, with SN12C, with SNB-19, in the assay with IGROV-1, in the assay with UACC-257 and with U-251 was > 100 µM (inactive) each time.

As for `COc1cccc2c1-c1ccccc1[C@H](Nc1ccccc1)[C@@]2(C)O`, the GI50 is 7.93 µM (inactive) with Malme-3M; 3.31 µM (inactive) in the assay on K562; 2.28 µM (inactive) in the assay with SNB-75; 11.3 µM (inactive) with SK-MEL-28; 10.3 µM (inactive) with MDA-MB-231; 3.62 µM (inactive) in the assay on SK-MEL-5. The GI50 in the assay on MCF7 was 4.34 µM (inactive); in the assay on ACHN, 9.57 µM (inactive); with SF-539, 2.77 µM (inactive); in the assay with COLO 205, 3.1 µM (inactive); with SR it was 0.865 µM (active); in the assay with DU-145 it was 5.3 µM (inactive). Moreover, the GI50 is 4.55 µM (inactive) in the assay with SN12C; 5.81 µM (inactive) in the assay with SNB-19; 6.11 µM (inactive) with UACC-257; 3.4 µM (inactive) with NCI-H226; 4.84 µM (inactive) in the assay with U-251.

On to `CN(C)CCNC(=O)c1cccc(N(C)C(=O)c2ccccc2)c1[N+](=O)[O-]`, for which the GI50 in the assay on Malme-3M is > 100 µM (inactive); in the assay on K562 it was > 100 µM (inactive); with SNB-75 it was 53.6 µM (inactive); in the assay on SK-MEL-28 it was > 100 µM (inactive); in the assay on MDA-MB-231, > 100 µM (inactive); with SK-MEL-5 it was > 100 µM (inactive). In addition, the GI50 with MCF7 was > 100 µM (inactive); with ACHN it was > 100 µM (inactive); with SF-539 it was > 100 µM (inactive); in the assay with COLO 205 it was > 10 µM (inactive); in the assay on SR, > 100 µM (inactive); with DU-145, > 100 µM (inactive). Besides, the GI50 is > 10 µM (inactive) in the assay with SN12C; > 100 µM (inactive) in the assay with SNB-19; > 100 µM (inactive) with IGROV-1; > 10 µM (inactive) in the assay with UACC-257; > 100 µM (inactive) in the assay on NCI-H226; > 100 µM (inactive) in the assay with U-251.

As to `COC1=CC2(C=CC1=O)CCNC1=C2C(=O)c2nc[nH]c2C1=O` (stereo not given), the GI50 in the assay with Malme-3M, in the assay on K562, with SNB-75, with SK-MEL-28, with MDA-MB-231 and in the assay on SK-MEL-5 was > 100 µM (inactive) each time. Further, the GI50 with RPMI-8226, in the assay with MCF7, in the assay with ACHN, with SF-539, in the assay on COLO 205 and with SR was > 100 µM (inactive) throughout. The GI50 in the assay on DU-145, with SN12C, with SNB-19, in the assay on IGROV-1, in the assay on UACC-257 and in the assay on U-251 was > 100 µM (inactive) in each case.

With `COc1ccc(N2C(=O)C3c4[nH]c5ccccc5c4C4CCC(C(C)(C)C)CC4C3C2=O)c(C)c1` (stereo not given), the GI50 with K562, with SNB-75, in the assay with SK-MEL-28, in the assay on MDA-MB-231, with SK-MEL-5 and in the assay with RPMI-8226 was > 100 µM (inactive) in each case. The GI50 with MCF7, with ACHN, in the assay on SF-539, with COLO 205, in the assay with SR and in the assay with DU-145 was > 100 µM (inactive) each time. Also, the GI50 in the assay with SN12C, in the assay on SNB-19, in the assay on IGROV-1, in the assay on UACC-257, in the assay with NCI-H226 and in the assay on U-251 was > 100 µM (inactive) in each case.
